These results are taken from patent publication US20230079819A1, “COMPOUNDS AND USES THEREOF” (Foghorn Therapeutics Inc., priority 2019, published 2023).

The target in one test is T1, BRM (Homo sapiens, UniProt P51531).
T1 construct: made in house; host or cells: High Five insect cells
Nature of the test: ATPase catalytic activity of BRM, ADP-Glo in vitro biochemical assay. To be noted: ATPase catalytic activity, 30 nM BRM, 400 μM ATP, read-out: BRM IP50. (ADP-Glo first removes unused ATP, then detects ADP through luciferase.)

In a further test the target is T2, BRG-1 (Homo sapiens, UniProt P51532).
T2 construct: made in house; host or cells: High Five insect cells
T2 sequence (P51532 whole entry): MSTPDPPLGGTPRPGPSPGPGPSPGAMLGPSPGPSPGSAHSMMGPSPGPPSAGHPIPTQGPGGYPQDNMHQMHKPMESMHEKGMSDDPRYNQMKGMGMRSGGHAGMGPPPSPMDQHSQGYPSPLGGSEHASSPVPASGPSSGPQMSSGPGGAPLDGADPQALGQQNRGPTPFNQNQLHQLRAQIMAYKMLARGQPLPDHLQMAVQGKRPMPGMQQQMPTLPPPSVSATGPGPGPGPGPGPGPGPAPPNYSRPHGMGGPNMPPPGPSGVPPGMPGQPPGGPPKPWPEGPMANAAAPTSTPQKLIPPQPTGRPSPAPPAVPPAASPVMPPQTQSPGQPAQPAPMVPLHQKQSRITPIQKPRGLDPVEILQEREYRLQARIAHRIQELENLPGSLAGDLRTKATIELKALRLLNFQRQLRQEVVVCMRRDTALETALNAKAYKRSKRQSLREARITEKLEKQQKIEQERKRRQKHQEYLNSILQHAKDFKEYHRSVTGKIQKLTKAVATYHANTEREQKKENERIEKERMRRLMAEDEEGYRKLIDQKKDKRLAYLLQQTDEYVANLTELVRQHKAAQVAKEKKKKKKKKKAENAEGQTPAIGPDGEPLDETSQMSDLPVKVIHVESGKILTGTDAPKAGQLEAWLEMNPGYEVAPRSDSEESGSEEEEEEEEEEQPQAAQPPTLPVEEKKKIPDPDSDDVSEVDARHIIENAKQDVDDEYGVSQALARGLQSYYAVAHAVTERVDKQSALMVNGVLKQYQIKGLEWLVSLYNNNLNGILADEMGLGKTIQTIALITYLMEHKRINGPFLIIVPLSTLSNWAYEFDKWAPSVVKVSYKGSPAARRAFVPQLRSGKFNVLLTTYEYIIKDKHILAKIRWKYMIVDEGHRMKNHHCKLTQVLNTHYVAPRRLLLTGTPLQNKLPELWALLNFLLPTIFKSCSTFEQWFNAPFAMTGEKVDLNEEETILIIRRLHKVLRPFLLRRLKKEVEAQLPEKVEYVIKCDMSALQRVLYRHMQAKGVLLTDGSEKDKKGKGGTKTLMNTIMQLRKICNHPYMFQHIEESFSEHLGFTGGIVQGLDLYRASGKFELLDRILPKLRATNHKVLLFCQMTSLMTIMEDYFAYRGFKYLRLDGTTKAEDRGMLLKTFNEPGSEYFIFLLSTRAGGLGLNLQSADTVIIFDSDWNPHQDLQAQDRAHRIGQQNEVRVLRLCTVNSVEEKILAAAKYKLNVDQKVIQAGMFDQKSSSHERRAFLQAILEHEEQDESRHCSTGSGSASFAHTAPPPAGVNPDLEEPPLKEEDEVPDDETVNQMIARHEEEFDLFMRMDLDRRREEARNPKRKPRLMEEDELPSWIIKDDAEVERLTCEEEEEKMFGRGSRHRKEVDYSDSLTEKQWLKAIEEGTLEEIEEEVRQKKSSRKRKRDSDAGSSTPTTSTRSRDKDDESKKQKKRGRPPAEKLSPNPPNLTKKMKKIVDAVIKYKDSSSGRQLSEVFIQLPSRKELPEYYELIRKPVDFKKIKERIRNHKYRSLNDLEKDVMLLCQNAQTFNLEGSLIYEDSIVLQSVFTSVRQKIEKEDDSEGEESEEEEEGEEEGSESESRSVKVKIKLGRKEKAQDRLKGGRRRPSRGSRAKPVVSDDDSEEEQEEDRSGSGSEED
Nature of the test: ATPase catalytic activity of BRG-1, ADP-Glo in vitro biochemical assay. As to conditions: ATPase catalytic activity, 30 nM BRG-1, 400 μM ATP, read-out: BRG1 IP50.

T1 sequence (P51531 whole entry): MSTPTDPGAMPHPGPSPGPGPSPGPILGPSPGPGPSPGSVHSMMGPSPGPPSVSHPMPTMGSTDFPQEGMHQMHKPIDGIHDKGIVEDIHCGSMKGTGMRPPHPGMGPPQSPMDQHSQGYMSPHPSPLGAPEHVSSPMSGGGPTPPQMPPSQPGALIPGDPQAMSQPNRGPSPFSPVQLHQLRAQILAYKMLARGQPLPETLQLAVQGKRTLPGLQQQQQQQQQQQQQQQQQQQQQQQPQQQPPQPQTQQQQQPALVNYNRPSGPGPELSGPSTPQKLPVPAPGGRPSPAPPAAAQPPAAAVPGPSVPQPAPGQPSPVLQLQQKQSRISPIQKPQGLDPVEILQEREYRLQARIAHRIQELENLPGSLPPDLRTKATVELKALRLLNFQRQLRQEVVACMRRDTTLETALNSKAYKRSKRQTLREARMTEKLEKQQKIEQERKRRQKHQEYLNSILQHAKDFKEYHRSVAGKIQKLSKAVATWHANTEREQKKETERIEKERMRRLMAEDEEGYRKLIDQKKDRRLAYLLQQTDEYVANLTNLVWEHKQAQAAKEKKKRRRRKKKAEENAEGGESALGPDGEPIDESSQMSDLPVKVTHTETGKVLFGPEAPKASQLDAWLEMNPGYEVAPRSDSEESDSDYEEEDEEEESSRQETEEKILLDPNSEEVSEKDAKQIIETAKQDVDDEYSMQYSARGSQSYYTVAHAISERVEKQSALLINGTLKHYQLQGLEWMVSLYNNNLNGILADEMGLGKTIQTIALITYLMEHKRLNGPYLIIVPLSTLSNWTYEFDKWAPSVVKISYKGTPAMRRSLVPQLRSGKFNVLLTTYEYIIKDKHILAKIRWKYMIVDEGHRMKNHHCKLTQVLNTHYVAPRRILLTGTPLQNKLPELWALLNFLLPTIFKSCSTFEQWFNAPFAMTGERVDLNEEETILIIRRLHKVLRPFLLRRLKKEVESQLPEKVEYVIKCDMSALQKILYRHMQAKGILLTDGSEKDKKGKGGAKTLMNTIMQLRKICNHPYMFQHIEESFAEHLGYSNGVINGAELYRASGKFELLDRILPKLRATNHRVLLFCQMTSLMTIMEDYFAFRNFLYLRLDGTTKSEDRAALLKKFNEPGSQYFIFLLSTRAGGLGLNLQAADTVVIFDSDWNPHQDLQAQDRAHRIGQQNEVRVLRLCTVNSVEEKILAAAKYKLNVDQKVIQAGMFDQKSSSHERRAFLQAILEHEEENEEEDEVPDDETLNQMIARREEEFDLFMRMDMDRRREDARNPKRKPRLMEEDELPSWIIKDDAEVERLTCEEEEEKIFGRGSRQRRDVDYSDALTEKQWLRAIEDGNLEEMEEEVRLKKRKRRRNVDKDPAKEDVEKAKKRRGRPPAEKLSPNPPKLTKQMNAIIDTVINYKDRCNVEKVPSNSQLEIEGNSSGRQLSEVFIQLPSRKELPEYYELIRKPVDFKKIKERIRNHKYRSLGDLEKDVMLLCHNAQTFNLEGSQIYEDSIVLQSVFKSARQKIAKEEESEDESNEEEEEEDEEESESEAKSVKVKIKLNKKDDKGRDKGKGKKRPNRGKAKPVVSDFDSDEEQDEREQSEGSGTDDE

On to `CC(C)(C)n1ccc(C(=O)NCC(=O)Nc2nc(-c3cccc(OC(F)F)n3)cs2)c1` [Compound 512], for which the IC50 on BRM and on BRG-1 was more than 100 nM each time.
Consider `CO[C@H]1C[C@H](c2cccc(-c3csc(NC(=O)CNC(=O)c4ccn(C(C)(C)C)c4)n3)n2)C1` [Compound 514], for which the IC50 on BRM and at BRG-1 was more than 100 nM in each case.
Consider `CO[C@H]1C[C@@H](c2cccc(-c3csc(NC(=O)CNC(=O)c4ccn(C(C)(C)C)c4)n3)n2)C1` [Compound 515], for which the IC50 at BRM was more than 10 nM; at BRG-1, more than 100 nM.
For `N#CC1(n2ccc(C(=O)NCC(=O)Nc3nc(-c4ccc(F)c(N5CCC5)c4)cs3)c2)CC1` [Compound 516], the IC50 at BRM and on BRG-1 was more than 10 nM in each case.
Turning to `C[C@@H]1Cc2ccc(-c3csc(NC(=O)CNC(=O)c4ccn(S(C)(=O)=O)c4)n3)cc2O1` [Compound 517], the IC50 on BRM and at BRG-1 was more than 10 nM throughout.
For the compound `CS(=O)(=O)n1ccc(C(=O)NCC(=O)Nc2nc(-c3cc(F)cc(N4CCC4)c3)cs2)c1` [Compound 518], the IC50 on BRM and at BRG-1 was less than 10 nM each time.
Consider `CC1(n2ccc(C(=O)NCC(=O)Nc3nc(-c4cc(F)cc(N5CCC5)c4)cs3)c2)COC1` [Compound 519], for which the IC50 on BRM and on BRG-1 was more than 10 nM each time.
For the compound `C[C@@H]1CN(c2cccc(-c3nc(NC(=O)CNC(=O)c4ccn(C(C)(C)C)c4)sc3F)n2)C[C@H](C)O1` [Compound 520, 1-(tert-butyl)-N-(2-((4-(6-(cis-2,6-dimethylmorpholino)pyridin-2-yl)-5-fluorothiazol-2-yl)amino)-2-oxoethyl)-1H-pyrrole-3-carboxamide], the IC50 on BRM is more than 10 nM; on BRG-1, more than 100 nM.
As to `N#CC1(n2ccc(C(=O)NCC(=O)Nc3nc(-c4cc(F)cc(N5CCC5)c4)cs3)c2)CC1` [Compound 521], the IC50 on BRM is less than 10 nM; on BRG-1, more than 10 nM.
Regarding `N#CC1(n2ccc(C(=O)NCC(=O)Nc3nc(-c4cccc(OC(F)F)n4)cs3)c2)CC1` [Compound 522], the IC50 at BRM and at BRG-1 was more than 100 nM throughout.
`Cc1cncc(-c2cccc(-c3csc(NC(=O)CNC(=O)c4ccn(C5(C)COC5)c4)n3)n2)n1` [Compound 523, 1-(3-methyloxetan-3-yl)-N-[2-[[4-[6-(6-methylpyrazin-2-yl)-2-pyridyl]thiazol-2-yl]amino]-2-oxo-ethyl]pyrrole-3-carboxamide]: the IC50 on BRM and on BRG-1 was more than 10 nM in each case.
`N#CC1(n2ccc(C(=O)NCC(=O)Nc3nc(-c4cccc(N5CCC5)c4F)cs3)c2)CC1` [Compound 524]: the IC50 on BRM is less than 10 nM; on BRG-1 it was more than 10 nM.
For the compound `CC1(n2ccc(C(=O)NCC(=O)Nc3nc(-c4cccc(N5CCC5)c4F)cs3)c2)COC1` [Compound 525], the IC50 at BRM and on BRG-1 was more than 10 nM throughout.
Take `COC[C@H](NC(=O)c1ccn(C2(C#N)CC2)c1)C(=O)Nc1nc(-c2ccc3ccn(C)c(=O)c3c2)cs1` [Compound 526]: the IC50 on BRM and at BRG-1 was more than 10 nM in each case.
`C[C@H]1Cc2ccc(-c3csc(NC(=O)CNC(=O)c4ccn(S(C)(=O)=O)c4)n3)cc2O1` [Compound 527]: the IC50 on BRM and on BRG-1 was more than 10 nM each time.
As to `N#CC1(n2ccc(C(=O)NCC(=O)Nc3nc(-c4cccc(OCC5(F)COC5)c4)cs3)c2)CC1` [Compound 528], the IC50 at BRM and on BRG-1 was more than 100 nM throughout.
As to `Cc1cncc(-c2cccc(-c3csc(NC(=O)CNC(=O)c4ccn(C5(C)COC5)c4)n3)c2)n1` [Compound 529], the figures for the IC50 at BRM and at BRG-1 were less than 10 nM and more than 10 nM, respectively.
Consider `CO[C@H]1C[C@H](c2cccc(-c3csc(NC(=O)CNC(=O)c4ccn(S(C)(=O)=O)c4)n3)c2)C1` [Compound 530], for which the IC50 at BRM and at BRG-1 was more than 10 nM each time.
Regarding `CO[C@H]1C[C@H](c2ccc(-c3csc(NC(=O)CNC(=O)c4ccn(S(C)(=O)=O)c4)n3)cc2)C1` [Compound 531], the IC50 at BRM and at BRG-1 was more than 10 nM in each case.
For the compound `C[C@H](NC(=O)c1ccn(C2(C#N)CC2)c1)C(=O)Nc1nc(-c2ccc3ccn(C)c(=O)c3c2)cs1` [Compound 532], the IC50 on BRM and at BRG-1 was more than 10 nM throughout.
Turning to `CS(=O)(=O)n1ccc(C(=O)NCC(=O)Nc2nc(-c3cccc(N4CCC(C(F)F)CC4)c3)cs2)c1` [Compound 543], the IC50 at BRM and on BRG-1 was more than 10 nM in each case.
For the compound `CS(=O)(=O)n1ccc(C(=O)NCC(=O)Nc2nc(-c3cc(F)c4c(c3)CCO4)cs2)c1` [Compound 544], the IC50 at BRM and on BRG-1 was less than 10 nM throughout.
In the case of `COC[C@H](NC(=O)c1ccn(S(C)(=O)=O)c1)C(=O)Nc1nc(-c2ccc(F)c(OC3CC3)c2)cs1` [Compound 545], the IC50 on BRM is more than 10 nM; on BRG-1, more than 100 nM.
Regarding `CN1CCOc2c(F)cc(-c3csc(NC(=O)CNC(=O)c4ccn(S(C)(=O)=O)c4)n3)cc21` [Compound 546], the IC50 on BRM and at BRG-1 was less than 10 nM in each case.
Turning to `CC(C)(C)n1ccc(C(=O)NCC(=O)Nc2nc(-c3cccc(OC4CC4)c3F)cs2)c1` [Compound 547], the IC50 at BRM was more than 10 nM; at BRG-1 it was more than 100 nM.
Take `CC1(n2ccc(C(=O)NCC(=O)Nc3nc(-c4cccc(OC5CC5)c4F)cs3)c2)COC1` [Compound 548]: the IC50 on BRM and at BRG-1 was more than 100 nM in each case.
As for `COC[C@H](NC(=O)c1ccn(S(C)(=O)=O)c1)C(=O)Nc1nc(-c2ccc(F)c(N3CCC3)c2)cs1` [Compound 549], the IC50 was less than 10 nM at BRM and more than 10 nM at BRG-1.
Regarding `COC[C@H](NC(=O)c1ccn(C(C)(C)C)c1)C(=O)Nc1nc(-c2ccc3c(=O)n(C)ccc3c2)cs1` [Compound 551], the IC50 at BRM and on BRG-1 was more than 10 nM in each case.
As for `CS(=O)(=O)n1ccc(C(=O)NCC(=O)Nc2nc(-c3cccc(N4CC[C@H](N)C(F)(F)C4)c3)cs2)c1` [Compound 552], the IC50 on BRM and at BRG-1 was more than 10 nM each time.
`N#CC1(n2ccc(C(=O)NCC(=O)Nc3nc(-c4cccc(OC(F)(F)F)c4)cs3)c2)CC1` [Compound 553]: the IC50 on BRM and at BRG-1 was more than 10 nM in each case.
For the compound `N#CC1(n2ccc(C(=O)NCC(=O)Nc3nc(-c4cccc(OC5CC5)c4)cs3)c2)CC1` [Compound 554, 1-(1-cyanocyclopropyl)-N-[2-[[4-[3-(cyclopropoxy)phenyl]thiazol-2-yl]amino]-2-oxo-ethyl]pyrrole-3-carboxamide], the IC50 is more than 10 nM on BRM and more than 100 nM on BRG-1.
In the case of `N#CC1(n2ccc(C(=O)NCC(=O)Nc3nc(-c4cc(F)cc(OC5CC5)c4)cs3)c2)CC1` [Compound 555], the IC50 at BRM and at BRG-1 was more than 10 nM in each case.
Turning to `N#CC1(n2ccc(C(=O)NCC(=O)Nc3nc(-c4cccc(OC5CC5)c4F)cs3)c2)CC1` [Compound 556], the IC50 at BRM is more than 10 nM; on BRG-1 it was more than 100 nM.
With `COC[C@H](NC(=O)c1ccn(S(C)(=O)=O)c1)C(=O)Nc1nc(-c2cccc(N3CCC(C(F)F)CC3)c2)cs1` [Compound 557, (S)—N-(1-((4-(3-(4-(difluoromethyl)piperidin-1-yl)phenyl)thiazol-2-yl)amino)-3-methoxy-1-oxopropan-2-yl)-1-(methylsulfonyl)-1H-pyrrole-3-carboxamide], the IC50 on BRM and at BRG-1 was more than 10 nM throughout.
